# From publication PMC6525029 (ACS synthetic biology, 2019)
# T1: αvβ3 integrin, P06756
# T1 chain 1: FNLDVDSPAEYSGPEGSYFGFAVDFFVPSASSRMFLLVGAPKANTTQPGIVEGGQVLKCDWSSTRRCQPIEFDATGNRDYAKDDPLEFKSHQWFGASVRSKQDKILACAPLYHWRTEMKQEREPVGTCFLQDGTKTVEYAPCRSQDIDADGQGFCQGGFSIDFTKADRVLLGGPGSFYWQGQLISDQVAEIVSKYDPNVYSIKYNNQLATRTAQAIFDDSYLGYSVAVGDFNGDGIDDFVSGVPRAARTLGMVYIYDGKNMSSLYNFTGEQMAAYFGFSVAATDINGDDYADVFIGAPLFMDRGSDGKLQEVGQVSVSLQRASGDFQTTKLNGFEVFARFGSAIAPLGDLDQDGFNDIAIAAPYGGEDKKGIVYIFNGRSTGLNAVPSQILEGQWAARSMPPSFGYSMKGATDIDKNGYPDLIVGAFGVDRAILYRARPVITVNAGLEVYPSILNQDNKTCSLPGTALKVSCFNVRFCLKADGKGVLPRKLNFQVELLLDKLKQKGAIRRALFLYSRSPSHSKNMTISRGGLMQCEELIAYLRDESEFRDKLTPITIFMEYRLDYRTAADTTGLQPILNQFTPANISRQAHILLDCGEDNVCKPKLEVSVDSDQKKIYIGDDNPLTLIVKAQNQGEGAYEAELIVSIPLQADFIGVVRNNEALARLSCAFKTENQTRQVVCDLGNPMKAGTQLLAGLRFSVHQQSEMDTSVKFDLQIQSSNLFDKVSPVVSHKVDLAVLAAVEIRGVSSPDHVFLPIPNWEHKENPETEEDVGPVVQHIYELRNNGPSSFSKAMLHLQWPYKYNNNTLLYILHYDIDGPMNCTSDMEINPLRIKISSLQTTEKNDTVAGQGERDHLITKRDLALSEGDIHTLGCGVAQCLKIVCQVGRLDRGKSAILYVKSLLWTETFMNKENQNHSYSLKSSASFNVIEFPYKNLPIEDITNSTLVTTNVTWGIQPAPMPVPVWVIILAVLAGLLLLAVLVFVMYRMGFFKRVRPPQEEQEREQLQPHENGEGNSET
# T1 chain 2: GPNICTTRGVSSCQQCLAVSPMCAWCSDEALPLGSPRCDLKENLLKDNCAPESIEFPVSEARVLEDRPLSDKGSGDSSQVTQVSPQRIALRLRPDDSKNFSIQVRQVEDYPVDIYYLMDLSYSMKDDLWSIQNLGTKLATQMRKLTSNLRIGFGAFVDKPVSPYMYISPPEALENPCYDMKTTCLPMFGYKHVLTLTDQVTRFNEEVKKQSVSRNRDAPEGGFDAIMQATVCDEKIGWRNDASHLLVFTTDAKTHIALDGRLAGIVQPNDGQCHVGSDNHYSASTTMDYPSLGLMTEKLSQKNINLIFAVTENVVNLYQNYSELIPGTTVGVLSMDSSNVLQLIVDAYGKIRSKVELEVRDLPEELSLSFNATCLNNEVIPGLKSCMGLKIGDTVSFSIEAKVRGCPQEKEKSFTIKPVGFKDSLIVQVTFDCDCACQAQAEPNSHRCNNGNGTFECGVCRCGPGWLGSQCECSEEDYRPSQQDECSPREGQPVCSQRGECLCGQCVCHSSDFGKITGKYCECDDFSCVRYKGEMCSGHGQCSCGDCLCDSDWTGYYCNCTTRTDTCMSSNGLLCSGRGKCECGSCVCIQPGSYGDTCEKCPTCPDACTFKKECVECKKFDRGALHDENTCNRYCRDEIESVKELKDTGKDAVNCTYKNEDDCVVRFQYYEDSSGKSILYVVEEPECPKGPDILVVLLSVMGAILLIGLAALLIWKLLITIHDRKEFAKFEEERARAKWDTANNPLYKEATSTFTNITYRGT
# Assays:
# αvβ3 integrin = αvβ3 integrin (Homo sapiens, UniProt P05106+P06756); experiment: Fluorescence polarization; format: binding
# αvβ3 integrin, P06756 = target: T1, αvβ3 integrin, P06756; experiment: fluorescence polarisation
"Ki (αvβ3 integrin, P06756) [µM]",Molecule,Ki (αvβ3 integrin) [µM],"binding to the αvβ3 integrin (in words) (αvβ3 integrin; FP competition experiment, Figure 5 legend)"
,CSCC[C@H](NC(=O)[C@H]1CSC[C@H](NC(=O)[C@H](C)NC(=O)[C@H](C)N)C(=O)N[C@@H](Cc2c[nH]cn2)C(=O)N[C@@H](CCCNC(=N)N)C(=O)NCC(=O)N[C@@H](CC(=O)O)C(=O)N2CCC[C@H]2C(=O)N1)C(=O)N1CCC[C@H]1C(=O)N1CCC[C@H]1C(=O)N[C@@H]1CSC[C@@H](C(=O)O)NC(=O)[C@H](CCC(=O)O)NC(=O)CNC(=O)[C@H](CCC(=O)O)NC(=O)[C@H](Cc2c[nH]c3ccccc23)NC(=O)[C@H](Cc2ccc(O)cc2)NC1=O [Pcn2.8(5RGD)],> 2,poor binding
0.018,CHNHAPSMPPSYWRGDC (modifications not checked) [linear/unmodified Pcn2.8(16RGD) core peptide],,
